Reference: patent publication US5036077A, “1-(benzylpiperidino)propan-2-ol derivatives, their preparation, their use as antimicrobial agents and the products in which they are present” (Sanofi, priority 1987, dated 1991)
Values after ≈ are worked out from the molar mass of the structure shown. Where two headings read alike, the source gives them in different places.

What was measured:
Type in all cases: cell-based
[1] = tested on: Candida albicans CNCM 1180; test: Minimum fungicidal concentration, strain 5; conditions: CNCM1180, 0.5 h, read-out: MFC, strain 5
Experimental: (§1) A bacterial inoculum is brought into contact with different dilutions of the test product for a limited time of 30 minutes. When the contact time has ended, an aliquot of the bacterial suspension/product mixture is deposited on the surface of a gelose culture medium containing an agent for neutralizing the antibacterial activity of the product. The bactericidal concentration chosen is the minimum concentration of the product which is necessary to prevent bacterial growth. This concentration is expressed in μg/ml.
(§2) Plates containing cups receive different dilutions of the test product. These dilutions of the test product are brought into contact with the different bacterial suspensions using a multiple-site inoculator. After a contact time of 30 minutes, aliquots are transferred by means of this inoculator to the surface of a gelose medium (TSA) placed in petri dishes and containing an agent for neutralizing the activity, namely 20 g of lubrol W, 2.5 g of Tween 80, 2.5 g of sodium thiosulfate and 1% of egg yolk in 1000 ml of TSA (Difco). A reference for the efficacy of the neutralizing agent is prepared for each test product by depositing an aliquot of the dilution of the test product on the surface of the culture medium. After drying, the corresponding inoculum is deposited in the same place. A reference inoculum is prepared on a gelose medium with and without neutralizing agent. The results are read off after 48 hours of incubation at 37° C.
(§3) The antifungal activity of the products according to the invention was also determined using the method described above. The representative strain of yeast selected for the study was Candida albicans CNCM 1180 (strain 5).
This is maintained on a gelose medium of Sabouraud Dextrose Agar, marketed by Difco. The technique is identical to that described for studying the antibacterial activity. After 48 hours of culture at 37° C., the microbial growth is harvested with the aid of glass beads and 5 ml of diluent containing 1 g of tryptone and 8.5 g of sodium chloride in 1000 ml of distilled water; a further 5 ml of the diluent are then added. In a spectrophotometer, this suspension gives a 2 to 3% transmission of light at 620 nm. The inoculum corresponds to a 1/10 dilution of this microbial suspension. A 1/100 dilution of this suspension, observed between a microscope slide and cover slip through a lens of magnification 40, should show 10 cells per field, which corresponds to 1 000 000 yeasts per ml.
(§4) They indicate the minimum bactericidal concentrations (MBC) for strains 1, 2, 3 and 4 and the minimum fungicidal concentrations (MFC) for strain 5.

[2] = tested on: bacterial strains and fungal strain tested; test: Bactericidal and fungicidal activities on the strains tested (overall statement); conditions: bacterial strains 1-4 and fungal strain 5
Experimental: The bactericidal and fungicidal activities of the products according to the invention were studied on different strains.
as §1, §2, §3
By way of comparison, 3-aryloxy-1-piperidinopropan-2-ol derivatives described in the literature, or similar to the compounds described, were prepared and the bactericidal and fungicidal activities of these compounds and of propranolol were measured on the same strains and under the same conditions as for the products according to the invention. The results are reported in Table II after those obtained with the products according to the invention.

[3] = tested on: Escherichia coli CNCM 54127; test: Minimum bactericidal concentration, 30 min contact, strain 4; conditions: CNCM54127, 0.5 h, read-out: MBC, strain 4
Experimental: as §1
4 - Escherichia coli CNCM 54127.
(§5) The strains are maintained on Tryptic Soy Agar (TSA) marketed by Difco.
(§6) After 24 hours of culture at 37° C., the microbial growth is harvested with the aid of glass beads and 10 ml of diluent containing 1 g of tryptone and 8.5 g of sodium chloride in 1000 ml of distilled water. The suspension formed is shaken and the percentage transmission of light at 620 nm is measured on a spectrophotometer:
(§7) The bacterial inoculum corresponds to a 1/20 dilution of this bacterial suspension.
as §2, §4

[4] = tested on: Streptococcus faecalis CNCM 5855; test: Minimum bactericidal concentration, 30 min contact, strain 2; conditions: Enterococcus faecalis, CNCM5855, 0.5 h, read-out: MBC, strain 2
Experimental: as §1
2 - Streptococcus faecalis CNCM 5855;
as §5, §6, §7, §2, §4

[5] = tested on: Pseudomonas aeruginosa CNCM A22; test: Minimum bactericidal concentration, 30 min contact, strain 3; conditions: CNCMA22, 0.5 h, read-out: MBC, strain 3
Experimental: as §1
3 - Pseudomonas aeruginosa CNCM A22;
as §5, §6, §7, §2, §4

[6] = tested on: Staphylococcus aureus CNCM 53154; test: Minimum bactericidal concentration, 30 min contact, strain 1; conditions: CNCM53154, 0.5 h, read-out: MBC, strain 1
Experimental: as §1
1 - Staphylococcus aureus CNCM 53154;
as §5, §6, §7, §2, §4

[7] = Candida albicans CNCM 1180, contact time 30 minutes, solubilizing agent given per product
[8] = Escherichia coli CNCM 54127, contact time 30 minutes, solubilizing agent given per product
[9] = Streptococcus faecalis CNCM 5855, contact time 30 minutes, solubilizing agent given per product
[10] = Pseudomonas aeruginosa CNCM A22, contact time 30 minutes, solubilizing agent given per product
[11] = Staphylococcus aureus CNCM 53154, contact time 30 minutes, solubilizing agent (water, TEG or acetone) given per product

In the case of `CC1CCN(CC(O)COc2ccc(Br)cc2)CC1.Cl` (stereo not drawn) [Product A, 3-(4-bromophenoxy)-1-(4-methylpiperidino)propan-2-ol hydrochloride, reference compound], the MFC [1, 7] is reported as 5000 µg/mL, the “antimicrobial activity (in words)” value [2] is reported as “no antimicrobial activity” and the MBC [3, 8] is reported as 1000 µg/mL. It also gave an MBC [4, 9] of 1000 µg/mL, an MBC [5, 10] of 1000 µg/mL and an MBC [6, 11] greater than 2000 µg/mL.
For `Cl.OC(COc1ccccc1)CN1CCC(c2ccccc2)CC1` (stereo not drawn) [Product B, 3-phenoxy-1-(4-phenylpiperidino)propan-2-ol hydrochloride, reference compound], the MFC [1, 7] was greater than 1000 µg/mL, the “antimicrobial activity (in words)” value [2] was “no antimicrobial activity” and the MBC [3, 8] was greater than 1000 µg/mL. It also gave an MBC [4, 9] greater than 1000 µg/mL, an MBC [5, 10] greater than 1000 µg/mL and an MBC [6, 11] greater than 1000 µg/mL.
With `Cl.OC(CSc1ccc(Br)cc1)CN1CCCCC1` (stereo not drawn) [Product C, 3-(4-bromophenylthio)-1-piperidinopropan-2-ol hydrochloride, reference compound] the MFC [1, 7] was 1000 µg/mL, the “antimicrobial activity (in words)” value [2] was “no antimicrobial activity” and the MBC [3, 8] was greater than 1000 µg/mL. It also gave an MBC [4, 9] greater than 1000 µg/mL, an MBC [5, 10] greater than 1000 µg/mL and an MBC [6, 11] greater than 1000 µg/mL.
In the case of `CC(C)NCC(O)COc1cccc2ccccc12` (stereo not drawn) [Propranolol, propranolol, reference compound], the MFC ([1]; Candida albicans) is reported as 5000 µg/mL (≈ 19.3 mM), the “antimicrobial activity (in words)” value [2] is reported as “no antimicrobial activity” and the MBC ([3]; Escherichia coli) is reported as 1000 µg/mL (≈ 3.86 mM). For the same compound, the MBC [4] was 1000 µg/mL (≈ 3.86 mM), the MBC ([5]; Pseudomonas aeruginosa) was 1000 µg/mL (≈ 3.86 mM) and the MBC ([6]; Staphylococcus aureus) was 5000 µg/mL (≈ 19.3 mM).
